Measured values as given in ChEMBL document CHEMBL3046553, “Bioanalytical method development and validation for simultaneous estimation of (R)- and (S)-isomers of S002-333: a potent novel anti-thrombotic agent using LCMS/MS” (Med Chem Res, 2011).

How the values were obtained:
Plasma = assay: Drug recovery in New Zealand Oryctolagus cuniculus (rabbit) plasma at 1.56 to 400 ng/ml; assay type: ADME, cell-free
[1] = Volume of distribution in New Zealand Oryctolagus cuniculus (rabbit) at 2 mg/kg, iv; assay type: ADME, organism-based; parameters: dose 2 mg/kg, route intravenous; details: in vivo
[2] = Half life in New Zealand Oryctolagus cuniculus (rabbit) at 2 mg/kg, iv; assay type: ADME, organism-based; parameters: dose 2 mg/kg, route intravenous; details: in vivo
[3] = AUC (0 to infinity) in New Zealand Oryctolagus cuniculus (rabbit) at 2 mg/kg, iv; assay type: ADME, organism-based; parameters: time infinity, dose 2 mg/kg, route intravenous; details: plasma
[4] = Clearance in New Zealand Oryctolagus cuniculus (rabbit) at 2 mg/kg, iv; assay type: ADME, organism-based; parameters: dose 2 mg/kg, route intravenous; details: in vivo
[5] = Initial plasma concentration in New Zealand Oryctolagus cuniculus (rabbit) at 2 mg/kg, iv; assay type: ADME, organism-based; parameters: dose 2 mg/kg, route intravenous

Structure (SMILES) | Drug recovery (Plasma) | Vd [1] | half-life [2] | AUC(0-inf) [3] | clearance [4] | C0 [5]
COc1ccc(S(=O)(=O)N2Cc3[nH]c4ccccc4c3C[C@H]2C(N)=O)cc1 [S007-1558 (S)] | 40.88% | 29.8 L/kg | 241 min | 436 ng·h/mL | 84.3 mL/min/kg | 276 ng/mL
COc1ccc(S(=O)(=O)N2Cc3[nH]c4ccccc4c3C[C@@H]2C(N)=O)cc1 | 53.21% | 22 L/kg | 230 min | 568 ng·h/mL | 64.7 mL/min/kg | 288 ng/mL
